According to the supplement of paper PMC10949913:

How the values were obtained:
Settings in all cases: 48 h
CU-ACC1 [1] = test: AC50 viability; higher = less potent
Summary of the method: (§1)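 Library compounds were tested at 11 concentrations against three adrenocortical carcinoma cell lines in 1,536-well plates. CellTiter-Glo luminescence was read after 48 h and normalised per plate to vehicle and empty-well controls. Only inhibitory or non-responding curve classes from fitted concentration-response curves contributed AC50 and area under the curve.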

CU-ACC2 [2] = test: AC50 viability; higher = less potent
Summary of the method: as §1

NCI-H295R [3] = test: AC50 viability; higher = less potent
Summary of the method: as §1

CU-ACC1 [4] = test: area under concentration-response curve (viability) (AUC (a.u.)); higher = less active
Summary of the method: as §1

CU-ACC2 [5] = test: as above
Summary of the method: as §1

NCI-H295R [6] = test: as above
Summary of the method: as §1

Structure (SMILES)	AC50 viability (CU-ACC1 [1])	AC50 viability (CU-ACC2 [2])	AC50 viability (NCI-H295R [3])	area under concentration-response curve (CU-ACC1 [4])	area under concentration-response curve (CU-ACC2 [5])	area under concentration-response curve (NCI-H295R [6])
COc1cc(OCc2cccc(-c3ccccc3)c2C)cc(OC)c1CN1CCCC[C@H]1C(=O)O	16.6 µM	20.9 µM	18.6 µM	444	546	514
O=C1NC(=O)/C(=C/c2ccc3nccc(-c4ccncc4)c3c2)S1	1.32 µM	1.18 µM	1.32 µM	412	480	393
COc1ccc(-c2cc3c(C)nc(N)nc3n([C@H]3CC[C@H](OCCO)CC3)c2=O)cn1	0.295 µM	0.59 µM	0.235 µM	425	446	435
COCCNCCc1cccc(Nc2ncc3c(n2)-c2ccccc2[C@H](c2ccccc2F)C3)c1	11.8 µM	26.3 µM	8.33 µM	496	502	467
CNc1nccc(-c2cccnc2Oc2cc(C(=O)Nc3cccc(C(F)(F)F)c3)ccc2C)n1	14.8 µM	18.6 µM	18.6 µM	461	494	465
Cc1ccc(NC(=O)c2ccc(CN3CCN(C)CC3)cc2)cc1Nc1nc(-c2cccnc2)cs1	23.5 µM	23.5 µM	18.6 µM	503	586	547
C[C@H](NC(=O)C(=O)Nc1ccccc1C(C)(C)C)C(=O)N[C@@H](CC(=O)O)C(=O)COc1c(F)c(F)cc(F)c1F	1.66 µM	0.661 µM	1.05 µM	328	235	203
O=C(c1ccc(Nc2nccc(-c3cc4ccccc4s3)n2)cc1)N1CCC(N2CCCC2)CC1	9.34 µM	7.42 µM	6.61 µM	446	521	462
CN1CCN(C(=O)c2ccc3cc(CCNc4ncnc5ccc(C#N)cc45)ccc3c2)CC1	4.17 µM	16.6 µM	2.95 µM	397	499	436
C=CC(=O)Nc1ccc2ncnc(Nc3cccc(Br)c3)c2c1	13.2 µM	14.8 µM	0.372 µM	360	375	409
CNC(=O)c1ccccc1Nc1nc(Nc2ccc(N3CCOCC3)cc2OC)ncc1Cl	16.6 µM	4.17 µM	0.525 µM	435	483	452
Cc1ccc2nc(NCCN)c3ncc(C)n3c2c1	14.8 µM	10.5 µM	14.8 µM	413	369	423
CC(C)(O)CC(=O)NCCn1ccc2ncnc(Nc3ccc(Oc4cccc(C(F)(F)F)c4)c(Cl)c3)c21	20.9 µM	23.5 µM	20.9 µM	465	472	443
C=C1CC[C@@H]2[C@](C)(CO)[C@H](O)CC[C@@]2(C)[C@@H]1C/C=C1/C(=O)OC[C@H]1O	11.8 µM	5.9 µM	16.6 µM	334	388	372
CC[C@@H](C)Nc1cc(C(=O)NC2CC3CC[C@@H](C2)N3c2ccc(C(=O)C3CC3)cn2)c(C)cc1C(N)=O (stereo not given in full)	0.59 µM	0.118 µM	0.59 µM	330	405	408
C=CC(=O)Nc1cc(Nc2nccc(-c3cn(C)c4ccccc34)n2)c(OC)cc1N(C)CCN(C)C	9.34 µM	10.5 µM	9.34 µM	393	432	408
C[C@@H]1CC[C@@]2(OC1)O[C@H]3C[C@H]4[C@@H]5C/C=C6/C[C@H](CC[C@]6(C)[C@H]5CC[C@]4(C)[C@H]3[C@@H]2C)O[C@@H]7O[C@H](CO)[C@@H](O[C@@H]8O[C@@H](C)[C@H](O)[C@@H](O)[C@H]8O)[C@H](O)[C@H]7O[C@@H]9O[C@@H](C)[C@H](O)[C@@H](O)[C@H]9O	4.68 µM	7.42 µM	1.18 µM	446	524	386
Fc1cc(-c2cccc3ncc(-c4cnn(C5CCNCC5)c4)nc23)cc(F)c1CN1CCOCC1	11.8 µM	13.2 µM	8.33 µM	390	437	428
CC(C)[C@@H](N(CCCN)C(=O)C1=CC=C(C)C=C1)C/2=N/C3=CC(=CC=C3C(=O)N2CC4=CC=CC=C4)Cl	20.9 µM	26.3 µM	5.9 µM	440	567	410
COCCOc1nc(-c2ccc(Cl)c(Cl)c2)n(-c2ccc(NC(=O)CCl)cc2)n1	5.25 µM	3.72 µM	3.72 µM	383	415	391
C[C@@H](NC(=O)c1ncnc(N)c1Cl)c1ncc(C(=O)Nc2cc(C(F)(F)F)c(Cl)cn2)s1	18.6 µM	18.6 µM	18.6 µM	295	316	318
COCCn1c2c([n+](Cc3cnccn3)c1C)C(=O)c1ccccc1C2=O	1.66 µM	0.132 µM	3.32 µM	246	278	341
c1ccc(-c2ccc(CNc3nc(-c4ccccn4)nnc3-c3ccccc3)cc2)cc1	2.35 µM	14.8 µM	4.17 µM	385	504	461
NC(=O)c1cccc2c(NC(CN3CCC3)c3ccc(Cl)c(C(F)(F)F)c3)ncnc12 (stereo not given)	0.263 µM	0.332 µM	1.18 µM	266	160	223
CC(C)N(CCCNC(=O)Nc1ccc(C(C)(C)C)cc1)C[C@H]1O[C@@H](n2cc(Br)c3c(N)ncnc32)[C@H](O)[C@@H]1O	16.6 µM	16.6 µM	16.6 µM	438	506	464

Structure (SMILES)	AC50 viability (CU-ACC1 [1])	AC50 viability (CU-ACC2 [2])	AC50 viability (NCI-H295R [3])	area under concentration-response curve (CU-ACC1 [4])	area under concentration-response curve (CU-ACC2 [5])	area under concentration-response curve (NCI-H295R [6])
CO[C@@H]1[C@@H](O)[C@H](O)[C@@H](n2c3c(Cl)cccc3c3c4c(c5c6cccc(Cl)c6[nH]c5c32)C(=O)NC4=O)O[C@H]1CO	3.32 µM	8.33 µM	2.63 µM	461	438	494
CC[C@@H]1C(=O)N(C)c2cnc(Nc3ccc(C(=O)NC4CCN(C)CC4)cc3OC)nc2N1C1CCCC1	20.9 µM	16.6 µM	16.6 µM	412	461	404
Cc1ccc(C(=O)Nc2ccc(CN3CCN(C)CC3)c(C(F)(F)F)c2)cc1C#Cc1cnc2cccnn12	7.42 µM	9.34 µM	7.42 µM	402	524	487
c1ccc(CNc2nc(NCc3ccccc3)c3ccccc3n2)cc1	7.42 µM	9.34 µM	7.42 µM	366	467	386
Cn1cc(CNCC2CCN(c3ncc(C(=O)NO)cn3)CC2)c2ccccc21	0.661 µM	0.417 µM	0.661 µM	325	347	443
Cc1cc(Nc2ncc3c(n2)N(C)C(=O)N(c2cc(NC(=O)c4cccc(C(F)(F)F)c4)ccc2C)C3)n(C)n1	11.8 µM	2.63 µM	7.42 µM	468	483	512
CC(C)[C@@H](N(CCCN)C(=O)C1=CC=C(C)C=C1)C/2=C(\CC3=CC=CC=C3)C(=O)C4=C(O2)C=C(Cl)C=C4	13.2 µM	26.3 µM	2.35 µM	448	565	359
CCC(=O)N1CCN(CC1)C2=C(C=C(C=C2)N3C(=O)\C=C/C4=C3C5=CC(=CC=C5N=C4)C6=CN=C7C=CC=CC7=C6)C(F)(F)F	0.0102 µM	0.0456 µM	0.129 µM	305	362	326
COc1ccc(CNC(=O)Nc2ncc([N+](=O)[O-])s2)cc1	29.5 µM	18.6 µM	23.5 µM	394	400	410
O=C(/C=C/c1ccc(CN(CCO)CCc2c[nH]c3ccccc23)cc1)NO	0.332 µM	0.59 µM	1.66 µM	293	345	380
CO[C@@H](C)Cn1c(=O)n(C)c2cnc3ccc(-c4cncc(C(C)(C)O)c4)cc3c21	0.742 µM	0.661 µM	1.05 µM	398	419	445
CCCCCCCCc1ccc(CCC(N)(CO)CO)cc1	10.5 µM	8.33 µM	11.8 µM	357	384	395
C[C@@H]1O[C@@H](O[C@H]2C[C@@H](O)[C@]3(CO)[C@H]4[C@H](O)C[C@]5(C)[C@H](CC[C@]5(O)[C@@H]4CC[C@]3(O)C2)C/6=C/C(=O)OC6)[C@H](O)[C@H](O)[C@H]1O	0.0263 µM	0.0468 µM	0.0934 µM	215	335	264
CS[C@H]1SC[C@@H]2C(=O)N(C)[C@H](C(C)C)C(=O)OC[C@H](NC(=O)c3cnc4ccccc4n3)C(=O)N[C@H](C)C(=O)N(C)[C@H]1C(=O)N(C)[C@H](C(C)C)C(=O)OC[C@H](NC(=O)c1cnc3ccccc3n1)C(=O)N[C@H](C)C(=O)N2C	0.00934 µM	0.0209 µM	0.0833 µM	152	235	320
Cc1cnc(Nc2ccc(OCCN3CCCC3)cc2)nc1Nc1cccc([S+](=O)([O-])NC(C)(C)C)c1	16.6 µM	8.33 µM	8.33 µM	491	547	501
COc1cc(C)c(Sc2cnc(NC(=O)c3ccc(CNC(C)C(C)C)cc3)s2)cc1C(=O)N1CCN(C(C)=O)CC1 (stereo not given)	37.2 µM	16.6 µM	14.8 µM	466	527	478
COc1cc2c(NC3CCN(C(C)C)CC3)nc(C3CCCCC3)nc2cc1OCCCN1CCCC1	11.8 µM	14.8 µM	9.34 µM	369	350	404
CN1CCCN(C(=O)c2cccc(-c3ccc(/C=C4/C(=O)Nc5ccc(Cl)cc54)o3)c2)CC1	29.5 µM	23.5 µM	20.9 µM	392	379	361
CCN1CCN(Cc2ccc(Nc3ncc(F)c(-c4cc(F)c5nc(C)n(C(C)C)c5c4)n3)nc2)CC1	18.6 µM	8.33 µM	18.6 µM	463	362	480
C[C@@H](Oc1cc(-n2cnc3ccc(CN4CCN(C)CC4)cc32)sc1C(N)=O)c1ccccc1C(F)(F)F	11.8 µM	16.6 µM	11.8 µM	471	540	446
CC(C)C[C@@H](C=O)NC(=O)[C@H](CC(C)C)NC(=O)[C@H](CC(C)C)NC(=O)OCc1ccccc1	1.48 µM	0.934 µM	0.742 µM	374	409	407
O=C(CCCCCCC(=O)N/N=C/c1ccc(N(c2ccccc2)c2ccccc2)cc1)NO	6.61 µM	10.5 µM	1.18 µM	381	371	382
COC(C)(C)CCn1nc(Nc2c(C)cccc2C)c2cnc(Nc3ccc(OCCN4CCCC4)c(F)c3)nc21	14.8 µM	14.8 µM	11.8 µM	506	467	513
Nc1ccccc1NC(=O)c1ccc(CNC(=O)OCc2cccnc2)cc1	3.72 µM	14.8 µM	3.72 µM	422	523	440
O[C@H]1CC[C@@H](Oc2cccc3cnc(Nc4ccc5nc[nH]c5c4)nc23)CC1	1.66 µM	1.32 µM	2.63 µM	403	331	409
